pIC50: −log10 of the molar value.

13 molecules from ChEMBL document CHEMBL4814003, “Novel dual-mode antitumor chlorin-based derivatives as potent photosensitizers and histone deacetylase inhibitors for photodynamic therapy and chemotherapy” (Eur J Med Chem, 2021) can be followed below.

In assay [1] the test system is A549. The assay can be described thus: Dark toxicity in human A549 cells assessed as reduction in cell viability incubated under dark for 48 hrs measured after 48 hrs by CCK8 assay. Format: functional, cell-based. Particulars: A549, 48 h. On the technique in general: Tetrazolium assays rely on reduction of a dye to a coloured formazan, in cell work by metabolically active cells.

Assay [2] concerns A549. The assay can be described thus: Phototoxicity in human A549 cells assessed as reduction in cell viability irradiated 10 j/cm2 for 24 hrs followed by incubated for 24 hrs by CCK8 assay. Type of assay: functional, cell-based. As to conditions: A549, light or radiation study.
The subject of assay [3] is HCT-116. The experiment in a line: Dark toxicity in human HCT-116 cells assessed as reduction in cell viability incubated under dark for 48 hrs measured after 48 hrs by CCK8 assay. Type of assay: functional, cell-based. Particulars: HCT-116, 48 h.
For assay [4], the system named is HCT-116. The assay can be described thus: Phototoxicity in human HCT-116 cells assessed as reduction in cell viability irradiated 10 j/cm2 for 24 hrs followed by incubated for 24 hrs by CCK8 assay. Format: functional, cell-based. As to conditions: HCT-116, light or radiation study.
For a further assay, the target named is Histone deacetylase 1 (Homo sapiens, UniProt Q13547). The assay can be described thus: Inhibition of human recombinant HDAC1 using Ac-Leu-Gly-Lys(Ac)-AMC as substrate by measuring fluorescence intensity incubated for 30 mins by microplate reader assay.
Assay [5] relates to A549. The assay can be described thus: Induction of reactive oxygen species generation in human A549 cells assessed as mean count value at 0.01 uM incubated for 24 hrs by DCFH-DA staining based fluorescence microscopy assay. Type of assay: functional.
The subject of assay [6] is A549. The assay can be described thus: Induction of reactive oxygen species generation in human A549 cells assessed as mean count value at 0.05 uM incubated for 24 hrs by DCFH-DA staining based fluorescence microscopy assay. Format: functional.
Assay [7] deals with A549. The experiment in a line: Induction of autophagy in human A549 cells irradiated 10 j/cm2 at 0.1 uM after 24 hrs using fluorescent molecule DAPRed. Type of assay: functional.

Chain of Histone deacetylase 1 (Q13547 whole entry): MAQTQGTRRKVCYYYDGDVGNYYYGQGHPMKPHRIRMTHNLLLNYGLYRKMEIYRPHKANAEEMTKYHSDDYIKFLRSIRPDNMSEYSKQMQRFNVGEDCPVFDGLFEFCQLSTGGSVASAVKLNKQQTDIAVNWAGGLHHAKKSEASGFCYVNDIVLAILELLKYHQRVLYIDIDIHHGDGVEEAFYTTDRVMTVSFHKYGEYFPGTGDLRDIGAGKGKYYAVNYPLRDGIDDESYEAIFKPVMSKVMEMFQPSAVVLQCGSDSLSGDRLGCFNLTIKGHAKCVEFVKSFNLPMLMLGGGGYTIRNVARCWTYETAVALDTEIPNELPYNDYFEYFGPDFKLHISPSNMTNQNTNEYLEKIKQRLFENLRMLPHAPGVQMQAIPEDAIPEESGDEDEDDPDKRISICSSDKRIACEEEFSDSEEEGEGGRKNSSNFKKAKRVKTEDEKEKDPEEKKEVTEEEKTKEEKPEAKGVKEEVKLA

Regarding `C=Cc1c(C)c2cc3nc(c(C(=O)OC)c4[nH]c(cc5nc(cc1[nH]2)C(C)=C5CC)c(C)c4C(=O)OC)[C@@H](CCC(=O)O)[C@@H]3C`, the negative-log IC50 (pIC50) in the assay with A549 [1] was 4.80; in the assay with A549 [2], 6.52; in the assay with HCT-116 [3], 4.50; with HCT-116 [4] it was 6.28.

Consider `C=Cc1c(C)c2cc3nc(cc4[nH]c(cc5nc(cc1[nH]2)C(C)=C5CC)c(C)c4C(=O)OC)[C@@H](CCC(=O)O)[C@@H]3C`, for which the negative-log IC50 (pIC50) was 4.81 with A549 [1], 6.04 with A549 [2], 4.66 in the assay on HCT-116 [3] and 5.83 with HCT-116 [4].

With `C=Cc1c(C)c2cc3nc(c(C(=O)OC)c4[nH]c(cc5nc(cc1[nH]2)C(C)=C5CC)c(C)c4C(=O)OC)[C@@H](CCC(=O)NCCCCC(=O)NO)[C@@H]3C`, the negative logarithm of the IC50 (pIC50) at Histone deacetylase 1 was 4.31; in the assay on A549 [1], 5.82; in the assay on A549 [2], 6.74; with HCT-116 [3], 5.55; with HCT-116 [4], 6.97.

In the case of `C=Cc1c(C)c2cc3nc(c(C(=O)OC)c4[nH]c(cc5nc(cc1[nH]2)C(C)=C5CC)c(C)c4C(=O)OC)[C@@H](CCC(=O)Nc1ccc(C(=O)NO)cc1)[C@@H]3C`, the pIC50 on Histone deacetylase 1 was 4.96; in the assay with A549 [1], 6.03; in the assay on A549 [2], 6.89; in the assay with HCT-116 [3], 5.46; in the assay on HCT-116 [4], 6.57.

With `C=Cc1c(C)c2cc3nc(c(C(=O)OC)c4[nH]c(cc5nc(cc1[nH]2)C(C)=C5CC)c(C)c4C(=O)OC)[C@@H](CCC(=O)NCCCC(=O)Nc1ccccc1N)[C@@H]3C`, the negative logarithm of the IC50 (pIC50) on Histone deacetylase 1 was 3.70; in the assay with A549 [1] it was 5.43; with A549 [2], 6.51; in the assay with HCT-116 [3], 5.04; in the assay with HCT-116 [4] it was 6.48.

With `C=Cc1c(C)c2cc3nc(c(C(=O)OC)c4[nH]c(cc5nc(cc1[nH]2)C(C)=C5CC)c(C)c4C(=O)OC)[C@@H](CCC(=O)NCCCCCC(=O)Nc1ccccc1N)[C@@H]3C`, the negative logarithm of the IC50 (pIC50) is 4.05 on Histone deacetylase 1; 5.57 in the assay on A549 [1]; 6.64 in the assay with A549 [2]; 5.03 with HCT-116 [3]; 6.68 in the assay with HCT-116 [4].

As for `C=Cc1c(C)c2cc3nc(c(C(=O)OC)c4[nH]c(cc5nc(cc1[nH]2)C(C)=C5CC)c(C)c4C(=O)OC)[C@@H](CCC(=O)Nc1ccccc1N)[C@@H]3C`, the pIC50 on Histone deacetylase 1 is 3.65; with A549 [1] it was 6.23; in the assay with A549 [2], 6.74; in the assay with HCT-116 [3], 5.38; with HCT-116 [4], 7.64.

As for `C=Cc1c(C)c2cc3nc(c(C(=O)OC)c4[nH]c(cc5nc(cc1[nH]2)C(C)=C5CC)c(C)c4C(=O)OC)[C@@H](CCC(=O)NO)[C@@H]3C`, the pIC50 is 4.10 at Histone deacetylase 1; 6.43 in the assay with A549 [1]; 6.89 in the assay with A549 [2]; 5.38 in the assay on HCT-116 [3]; 7.96 in the assay on HCT-116 [4].

As for `C=Cc1c(C)c2cc3nc(c(CC(=O)N[C@@H](CC(=O)O)C(=O)O)c4[nH]c(cc5nc(cc1[nH]2)C(C)=C5CC)c(C)c4C(=O)O)[C@@H](CCC(=O)O)[C@@H]3C` [TALAPORFIN], the pIC50 was 3.74 in the assay on A549 [1], 5.21 with A549 [2], 4.29 in the assay on HCT-116 [3] and 5.53 in the assay with HCT-116 [4]. In addition, the Activity in the assay on A549 [5] is on record as 125.93; in the assay with A549 [6], 153.14; with A549 [7] it was 19.08%.

As to `C=Cc1c(C)c2cc3nc(cc4[nH]c(cc5nc(cc1[nH]2)C(C)=C5CC)c(C)c4C(=O)OC)[C@@H](CCC(=O)Nc1ccc(C(=O)NO)cc1)[C@@H]3C`, the pIC50 on Histone deacetylase 1 is 4.55; with A549 [1], 5.03; with A549 [2], 6.05; with HCT-116 [3], 5.34; in the assay with HCT-116 [4], 7.51.

For the molecule `C=Cc1c(C)c2cc3nc(c(C(=O)OC)c4[nH]c(cc5nc(cc1[nH]2)C(C)=C5CC)c(C)c4C(=O)OC)[C@@H](CCC(=O)NCCCC(=O)NO)[C@@H]3C`, the negative logarithm of the IC50 (pIC50) at Histone deacetylase 1 is 4.40; with A549 [1] it was 5.74; in the assay on A549 [2], 6.66; with HCT-116 [3], 5.26; in the assay with HCT-116 [4], 6.66.

Take `C=Cc1c(C)c2cc3nc(c(C(=O)OC)c4[nH]c(cc5nc(cc1[nH]2)C(C)=C5CC)c(C)c4C(=O)OC)[C@@H](CCC(=O)NCCCCC(=O)Nc1ccccc1N)[C@@H]3C`: the negative-log IC50 (pIC50) was 4.09 on Histone deacetylase 1; 5.45 in the assay on A549 [1]; 6.52 in the assay with A549 [2]; 5.06 with HCT-116 [3]; 6.59 in the assay with HCT-116 [4].

On to `C=Cc1c(C)c2cc3nc(c(C(=O)OC)c4[nH]c(cc5nc(cc1[nH]2)C(C)=C5CC)c(C)c4C(=O)OC)[C@@H](CCC(=O)NCCCCCC(=O)NO)[C@@H]3C`, for which the pIC50 on Histone deacetylase 1 is 4.06; in the assay with A549 [1], 5.87; in the assay on A549 [2], 6.92; in the assay with HCT-116 [3] it was 5.16; in the assay with HCT-116 [4], 7.41.

What is called pIC50 is the IC50 on a negative log10 scale, so that one unit is a factor of ten.
